Experimental data from ChEMBL document CHEMBL1155237, “Selective inhibitors of the mutant B-Raf pathway: discovery of a potent and orally bioavailable aminoisoquinoline” (J Med Chem, 2009).

How the values were obtained:
Design in all cases: scale not given: the % may be the effect or the level left
[1] = target: Serine/threonine-protein kinase 25 (Homo sapiens) (UniProt O00506); assay: Inhibition of YSK1 assessed as enzyme activity at 1 uM relative to untreated control
[2] = target: Receptor-interacting serine/threonine-protein kinase 2 (Homo sapiens) (UniProt O43353); assay: Inhibition of RIPK2 assessed as enzyme activity at 1 uM relative to untreated control
[3] = target: Receptor-interacting serine/threonine-protein kinase 1 (Homo sapiens) (UniProt Q13546); assay: Inhibition of RIPK1 assessed as enzyme activity at 1 uM relative to untreated control
[4] = target: Fibroblast growth factor receptor 3 (Homo sapiens) (UniProt P22607); assay: Inhibition of FGFR3 assessed as enzyme activity at 1 uM relative to untreated control
[5] = target: Mitogen-activated protein kinase kinase kinase kinase 3 (Homo sapiens) (UniProt Q8IVH8); assay: Inhibition of MAP4K3 assessed as enzyme activity at 1 uM relative to untreated control
[6] = target: Ephrin type-A receptor 2 (Homo sapiens) (UniProt P29317); assay: Inhibition of EPHA2 assessed as enzyme activity at 1 uM relative to untreated control
[7] = target: Dual specificity protein kinase CLK4 (Homo sapiens) (UniProt Q9HAZ1); assay: Inhibition of CLK4 assessed as enzyme activity at 1 uM relative to untreated control
[8] = target: Protein kinase C epsilon type (Homo sapiens) (UniProt Q02156); assay: Inhibition of PRKCE assessed as enzyme activity at 1 uM relative to untreated control
[9] = target: Phosphatidylinositol 4,5-bisphosphate 3-kinase catalytic subunit gamma isoform (Homo sapiens) (UniProt P48736); assay: Inhibition of PIK3CG assessed as enzyme activity at 1 uM relative to untreated control
[10] = target: Dual specificity protein kinase CLK1 (Homo sapiens) (UniProt P49759); assay: Inhibition of CLK1 assessed as enzyme activity at 1 uM relative to untreated control
[11] = target: Myosin-IIIb (Homo sapiens) (UniProt Q8WXR4); assay: Inhibition of MYO3B assessed as enzyme activity at 1 uM relative to untreated control
[12] = target: Mitogen-activated protein kinase 3 (Homo sapiens) (UniProt P27361); assay: Inhibition of ERK1 assessed as enzyme activity at 1 uM relative to untreated control
[13] = target: Epidermal growth factor receptor (Homo sapiens) (UniProt P04626+P00533+Q15303+P21860); assay: Inhibition of EGFR S752-I759del mutant assessed as enzyme activity at 1 uM relative to untreated control; assay type: protein assay
[14] = target: Phosphorylase b kinase gamma catalytic chain, liver/testis isoform (Homo sapiens) (UniProt P15735); assay: Inhibition of PHKG2 assessed as enzyme activity at 1 uM relative to untreated control
[15] = target: Insulin-like growth factor 1 receptor (Homo sapiens) (UniProt P08069); assay: Inhibition of IGF1R assessed as enzyme activity at 1 uM relative to untreated control
[16] = target: Calcium/calmodulin-dependent protein kinase type II subunit gamma (Homo sapiens) (UniProt Q13555); assay: Inhibition of CAMK2G assessed as enzyme activity at 1 uM relative to untreated control
[17] = target: Serine/threonine-protein kinase 36 (Homo sapiens) (UniProt Q9NRP7); assay: Inhibition of STK36 assessed as enzyme activity at 1 uM relative to untreated control
[18] = target: Homeodomain-interacting protein kinase 1 (Homo sapiens) (UniProt Q86Z02); assay: Inhibition of HIPK1 assessed as enzyme activity at 1 uM relative to untreated control
[19] = Inhibition of FLT3 ITD assessed as enzyme activity at 1 uM relative to untreated control
[20] = target: Wee1-like protein kinase (Homo sapiens) (UniProt P30291); assay: Inhibition of WEE1 assessed as enzyme activity at 1 uM relative to untreated control
[21] = target: Vascular endothelial growth factor receptor 3 (Homo sapiens) (UniProt P35916); assay: Inhibition of FLT4 assessed as enzyme activity at 1 uM relative to untreated control
[22] = target: Calcium/calmodulin-dependent protein kinase type 1D (Homo sapiens) (UniProt Q8IU85); assay: Inhibition of CAMK1D assessed as enzyme activity at 1 uM relative to untreated control
[23] = target: Serine/threonine-protein kinase MARK1 (Homo sapiens) (UniProt Q9P0L2); assay: Inhibition of MARK1 assessed as enzyme activity at 1 uM relative to untreated control
[24] = target: Serine/threonine-protein kinase PLK1 (Homo sapiens) (UniProt P53350); assay: Inhibition of PLK1 assessed as enzyme activity at 1 uM relative to untreated control
[25] = target: Cyclin-dependent kinase 19 (Homo sapiens) (UniProt Q9BWU1); assay: Inhibition of CDK11 assessed as enzyme activity at 1 uM relative to untreated control
[26] = target: Phosphatidylinositol 4,5-bisphosphate 3-kinase catalytic subunit delta isoform (Homo sapiens) (UniProt O00329); assay: Inhibition of PIK3CD assessed as enzyme activity at 1 uM relative to untreated control
[27] = target: Serine/threonine-protein kinase PAK 6 (Homo sapiens) (UniProt Q9NQU5); assay: Inhibition of PAK6 assessed as enzyme activity at 1 uM relative to untreated control
[28] = target: Mitogen-activated protein kinase kinase kinase 4 (Homo sapiens) (UniProt Q9Y6R4); assay: Inhibition of MAP3K4 assessed as enzyme activity at 1 uM relative to untreated control
[29] = target: MAP kinase-interacting serine/threonine-protein kinase 2 (Homo sapiens) (UniProt Q9HBH9); assay: Inhibition of MKNK2 assessed as enzyme activity at 1 uM relative to untreated control
[30] = target: Dual specificity tyrosine-phosphorylation-regulated kinase 1B (Homo sapiens) (UniProt Q9Y463); assay: Inhibition of DYRK1B assessed as enzyme activity at 1 uM relative to untreated control
[31] = target: Cyclin-dependent kinase 11A (Homo sapiens) (UniProt Q9UQ88); assay: Inhibition of CDC2L2 assessed as enzyme activity at 1 uM relative to untreated control
[32] = target: Serine/threonine-protein kinase NLK (Homo sapiens) (UniProt Q9UBE8); assay: Inhibition of NLK assessed as enzyme activity at 1 uM relative to untreated control
[33] = target: Vascular endothelial growth factor receptor 1 (Homo sapiens) (UniProt P17948); assay: Inhibition of FLT1 assessed as enzyme activity at 1 uM relative to untreated control
[34] = target: Ephrin type-B receptor 3 (Homo sapiens) (UniProt P54753); assay: Inhibition of EPHB3 assessed as enzyme activity at 1 uM relative to untreated control
[35] = target: Ribosomal protein S6 kinase alpha-6 (Homo sapiens) (UniProt Q9UK32); assay: Inhibition of RPS6KA6 kinase domain 1 assessed as enzyme activity at 1 uM relative to untreated control
[36] = target: Phosphatidylinositol 4-phosphate 3-kinase C2 domain-containing subunit beta (Homo sapiens) (UniProt O00750); assay: Inhibition of PIK3C2B assessed as enzyme activity at 1 uM relative to untreated control
[37] = target: Serine/threonine-protein kinase TAO3 (Homo sapiens) (UniProt Q9H2K8); assay: Inhibition of TAOK3 assessed as enzyme activity at 1 uM relative to untreated control
Serine/threonine-protein kinase TAO3 (Homo sapiens), sequence (Q9H2K8 whole entry): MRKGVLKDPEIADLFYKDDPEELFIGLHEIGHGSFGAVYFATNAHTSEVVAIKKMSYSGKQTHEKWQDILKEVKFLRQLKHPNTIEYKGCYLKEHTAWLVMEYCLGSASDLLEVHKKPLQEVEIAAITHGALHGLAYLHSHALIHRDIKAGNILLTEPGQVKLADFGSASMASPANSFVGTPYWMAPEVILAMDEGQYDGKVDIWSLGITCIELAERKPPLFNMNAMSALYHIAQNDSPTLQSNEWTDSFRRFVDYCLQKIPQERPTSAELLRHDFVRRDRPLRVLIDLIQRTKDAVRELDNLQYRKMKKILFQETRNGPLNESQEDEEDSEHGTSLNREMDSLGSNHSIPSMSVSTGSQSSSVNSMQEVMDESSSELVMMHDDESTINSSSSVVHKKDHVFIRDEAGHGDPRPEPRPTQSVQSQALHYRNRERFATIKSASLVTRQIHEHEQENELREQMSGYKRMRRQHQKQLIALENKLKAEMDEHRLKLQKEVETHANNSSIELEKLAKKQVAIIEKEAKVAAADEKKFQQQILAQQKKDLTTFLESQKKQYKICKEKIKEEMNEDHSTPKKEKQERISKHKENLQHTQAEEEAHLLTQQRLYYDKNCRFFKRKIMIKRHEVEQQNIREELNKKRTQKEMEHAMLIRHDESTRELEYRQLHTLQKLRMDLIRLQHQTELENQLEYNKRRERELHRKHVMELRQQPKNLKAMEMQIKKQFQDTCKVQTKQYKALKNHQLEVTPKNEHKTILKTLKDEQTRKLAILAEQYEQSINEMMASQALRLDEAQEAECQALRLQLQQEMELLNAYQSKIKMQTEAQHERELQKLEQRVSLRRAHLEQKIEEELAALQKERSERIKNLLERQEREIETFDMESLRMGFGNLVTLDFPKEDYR

Phosphatidylinositol 4,5-bisphosphate 3-kinase catalytic subunit delta isoform (Homo sapiens), sequence (O00329 whole entry, canonical isoform): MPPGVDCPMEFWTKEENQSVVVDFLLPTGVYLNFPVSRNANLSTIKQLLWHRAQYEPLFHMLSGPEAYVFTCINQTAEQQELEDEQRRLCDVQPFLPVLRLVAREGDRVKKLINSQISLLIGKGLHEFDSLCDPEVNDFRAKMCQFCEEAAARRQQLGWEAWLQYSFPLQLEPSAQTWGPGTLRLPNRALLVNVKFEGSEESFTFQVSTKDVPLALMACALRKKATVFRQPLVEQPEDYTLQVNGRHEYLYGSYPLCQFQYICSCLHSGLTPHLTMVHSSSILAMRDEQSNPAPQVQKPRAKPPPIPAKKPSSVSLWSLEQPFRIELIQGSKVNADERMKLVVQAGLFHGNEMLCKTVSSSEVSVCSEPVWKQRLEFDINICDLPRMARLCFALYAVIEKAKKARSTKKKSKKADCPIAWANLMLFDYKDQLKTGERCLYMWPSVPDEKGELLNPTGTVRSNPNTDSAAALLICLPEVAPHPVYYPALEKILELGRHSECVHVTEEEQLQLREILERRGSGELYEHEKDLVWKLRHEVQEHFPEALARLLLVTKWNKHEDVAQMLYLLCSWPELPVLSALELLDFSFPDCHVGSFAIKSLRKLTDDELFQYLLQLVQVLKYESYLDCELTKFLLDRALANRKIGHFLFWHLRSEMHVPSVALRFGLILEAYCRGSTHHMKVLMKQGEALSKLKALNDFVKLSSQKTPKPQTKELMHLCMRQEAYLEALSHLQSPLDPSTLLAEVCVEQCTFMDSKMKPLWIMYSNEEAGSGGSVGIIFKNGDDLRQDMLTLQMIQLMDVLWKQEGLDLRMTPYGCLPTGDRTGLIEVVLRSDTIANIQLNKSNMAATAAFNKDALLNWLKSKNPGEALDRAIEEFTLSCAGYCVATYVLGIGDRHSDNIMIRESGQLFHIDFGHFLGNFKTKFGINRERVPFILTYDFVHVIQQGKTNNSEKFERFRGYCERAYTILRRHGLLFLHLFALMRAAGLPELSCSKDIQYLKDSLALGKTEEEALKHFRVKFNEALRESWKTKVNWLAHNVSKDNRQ
Homeodomain-interacting protein kinase 1 (Homo sapiens), sequence (Q86Z02 whole entry, looked up): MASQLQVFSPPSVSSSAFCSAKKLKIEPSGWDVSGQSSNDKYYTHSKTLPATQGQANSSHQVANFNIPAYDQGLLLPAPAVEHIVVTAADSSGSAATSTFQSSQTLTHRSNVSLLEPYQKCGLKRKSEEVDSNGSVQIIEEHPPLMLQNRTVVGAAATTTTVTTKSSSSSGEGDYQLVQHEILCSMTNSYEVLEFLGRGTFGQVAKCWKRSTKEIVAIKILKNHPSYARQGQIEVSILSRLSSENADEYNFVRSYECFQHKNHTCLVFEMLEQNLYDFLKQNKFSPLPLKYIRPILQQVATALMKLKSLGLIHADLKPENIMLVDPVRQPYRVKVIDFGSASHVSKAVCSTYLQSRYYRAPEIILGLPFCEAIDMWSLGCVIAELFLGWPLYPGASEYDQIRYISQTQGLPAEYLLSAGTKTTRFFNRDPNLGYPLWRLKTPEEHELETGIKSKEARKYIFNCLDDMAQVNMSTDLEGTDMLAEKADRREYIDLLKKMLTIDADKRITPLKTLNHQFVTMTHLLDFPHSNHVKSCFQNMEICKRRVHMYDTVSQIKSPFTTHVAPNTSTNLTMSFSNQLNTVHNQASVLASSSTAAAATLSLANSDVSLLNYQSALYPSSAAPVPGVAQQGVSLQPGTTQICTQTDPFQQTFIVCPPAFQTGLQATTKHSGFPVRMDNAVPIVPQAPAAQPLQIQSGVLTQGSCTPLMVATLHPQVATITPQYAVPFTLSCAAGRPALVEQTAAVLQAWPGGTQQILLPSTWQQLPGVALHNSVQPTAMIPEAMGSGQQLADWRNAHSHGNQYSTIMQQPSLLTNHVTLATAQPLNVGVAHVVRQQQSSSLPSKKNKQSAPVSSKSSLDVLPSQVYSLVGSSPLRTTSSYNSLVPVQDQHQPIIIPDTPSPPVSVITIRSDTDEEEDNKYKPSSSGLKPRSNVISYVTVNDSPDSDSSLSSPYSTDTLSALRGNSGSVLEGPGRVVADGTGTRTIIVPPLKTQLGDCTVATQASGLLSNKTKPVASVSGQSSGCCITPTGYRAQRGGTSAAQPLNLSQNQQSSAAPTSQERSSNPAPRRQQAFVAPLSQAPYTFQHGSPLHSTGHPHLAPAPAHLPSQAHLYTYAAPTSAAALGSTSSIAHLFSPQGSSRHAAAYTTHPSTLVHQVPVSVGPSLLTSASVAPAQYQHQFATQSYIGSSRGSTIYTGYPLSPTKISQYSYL
Serine/threonine-protein kinase 25 (Homo sapiens), sequence (O00506 whole entry, looked up): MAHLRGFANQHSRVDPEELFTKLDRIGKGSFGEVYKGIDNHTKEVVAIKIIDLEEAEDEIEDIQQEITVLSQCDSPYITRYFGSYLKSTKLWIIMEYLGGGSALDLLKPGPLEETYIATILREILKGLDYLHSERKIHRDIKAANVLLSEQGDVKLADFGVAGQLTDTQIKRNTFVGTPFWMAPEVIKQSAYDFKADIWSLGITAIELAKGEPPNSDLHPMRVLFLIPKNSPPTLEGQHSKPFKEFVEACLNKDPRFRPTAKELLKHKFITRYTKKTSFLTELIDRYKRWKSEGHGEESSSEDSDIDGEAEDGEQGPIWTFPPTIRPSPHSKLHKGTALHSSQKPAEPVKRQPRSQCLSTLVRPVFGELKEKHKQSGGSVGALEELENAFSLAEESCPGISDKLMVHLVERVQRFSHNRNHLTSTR
Receptor-interacting serine/threonine-protein kinase 2 (Homo sapiens), sequence (O43353 whole entry): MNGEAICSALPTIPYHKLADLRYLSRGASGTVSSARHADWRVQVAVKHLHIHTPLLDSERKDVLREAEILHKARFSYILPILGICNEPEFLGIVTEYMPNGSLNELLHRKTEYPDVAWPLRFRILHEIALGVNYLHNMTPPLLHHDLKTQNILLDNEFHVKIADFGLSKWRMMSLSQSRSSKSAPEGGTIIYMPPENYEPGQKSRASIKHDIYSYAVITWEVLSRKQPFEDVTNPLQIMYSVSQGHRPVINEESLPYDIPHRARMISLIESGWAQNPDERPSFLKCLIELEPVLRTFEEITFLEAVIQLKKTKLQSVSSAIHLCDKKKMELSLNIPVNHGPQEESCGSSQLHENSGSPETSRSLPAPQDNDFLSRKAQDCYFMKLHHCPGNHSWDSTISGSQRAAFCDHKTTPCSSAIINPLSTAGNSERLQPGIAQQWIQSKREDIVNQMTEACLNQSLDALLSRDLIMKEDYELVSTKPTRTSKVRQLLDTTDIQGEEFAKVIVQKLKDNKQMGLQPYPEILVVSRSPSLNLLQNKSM
Serine/threonine-protein kinase PLK1 (Homo sapiens), sequence (P53350 whole entry): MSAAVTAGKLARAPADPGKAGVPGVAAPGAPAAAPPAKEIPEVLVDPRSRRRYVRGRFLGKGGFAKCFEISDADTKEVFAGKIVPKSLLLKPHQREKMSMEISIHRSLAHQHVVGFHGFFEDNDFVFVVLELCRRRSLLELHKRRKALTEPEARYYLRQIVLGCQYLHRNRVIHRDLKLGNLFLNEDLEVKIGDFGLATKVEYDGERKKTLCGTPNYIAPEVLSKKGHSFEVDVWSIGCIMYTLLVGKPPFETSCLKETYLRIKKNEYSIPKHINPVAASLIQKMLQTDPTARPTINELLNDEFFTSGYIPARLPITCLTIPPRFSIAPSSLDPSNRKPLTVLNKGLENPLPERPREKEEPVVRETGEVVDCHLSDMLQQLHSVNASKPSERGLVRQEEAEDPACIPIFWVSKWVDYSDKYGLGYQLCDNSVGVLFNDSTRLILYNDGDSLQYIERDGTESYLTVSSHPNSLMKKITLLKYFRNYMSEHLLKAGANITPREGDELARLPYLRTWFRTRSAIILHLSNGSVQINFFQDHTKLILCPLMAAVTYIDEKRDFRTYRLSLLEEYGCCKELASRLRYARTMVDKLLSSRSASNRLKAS

For Cc1ccc2c(Nc3ccc(Cl)cc3)nccc2c1Nc1ncccc1-c1ncnc2[nH]cnc12.Cl.Cl.Cl, which Activity [1] is on record?
The Activity was 100%.

And the Activity [2]?
Its Activity is 100%.

What about the Activity [3] of the same compound?
The Activity was 92%.

And the Activity [4]?
Its Activity is 100%.

What about the Activity [5] of the same compound?
Its Activity is 85%.

What about the Activity [6] of the same compound?
The Activity was 2.8%.

What about the Activity [7] of the same compound?
Its Activity is 100%.

And the Activity [8]?
Its Activity is 100%.

And the Activity [9]?
Its Activity is 100%.

What about the Activity [10] of the same compound?
The Activity was 100%.

What about the Activity [11] of the same compound?
The Activity was 68%.

What about the Activity [12] of the same compound?
The Activity was 100%.

And the Activity [13]?
The Activity was 90%.

And the Activity [14]?
The Activity was 100%.

And the Activity [15]?
The Activity was 94%.

What about the Activity [16] of the same compound?
Its Activity is 98%.

What about the Activity [17] of the same compound?
The Activity was 92%.

What about the Activity [18] of the same compound?
The Activity was 99%.

And the Activity [19]?
Its Activity is 92%.

What about the Activity [20] of the same compound?
Its Activity is 92%.

What about the Activity [21] of the same compound?
Its Activity is 96%.

What about the Activity [22] of the same compound?
Its Activity is 100%.

And the Activity [23]?
The Activity was 97%.

And the Activity [24]?
Its Activity is 100%.

What about the Activity [25] of the same compound?
The Activity was 100%.

What about the Activity [26] of the same compound?
The Activity was 100%.

What about the Activity [27] of the same compound?
The Activity was 100%.

What about the Activity [28] of the same compound?
Its Activity is 100%.

And the Activity [29]?
The Activity was 100%.

And the Activity [30]?
Its Activity is 100%.

And the Activity [31]?
The Activity was 33%.

What about the Activity [32] of the same compound?
The Activity was 83%.

And the Activity [33]?
Its Activity is 2.2%.

And the Activity [34]?
The Activity was 10%.

And the Activity [35]?
The Activity was 92%.

And the Activity [36]?
The Activity was 100%.

And the Activity [37]?
The Activity was 94%.
